Test results as given in patent US10399933B2, “Inhibitors of indoleamine-2,3-dioxygenase for the treatment of cancer” (BRISTOL-MYERS SQUIBB COMPANY, priority 2015, dated 2019).

Molecular target: human IDO1 (Homo sapiens, UniProt P14902)
Assay: Human IDO-1 inhibitory activity in Hela cells (interferon-gamma stimulated)
Type: cell-based
Set-up: endogenous in cells; host or cells: HeLa cells stimulated with interferon-gamma
Conditions: 18 hours, unstimulated wells = 100% inhibition
Protocol: HeLa cells were seeded at 20,000 cells per 30 μL per well with RPMI/phenol red free media containing 10% FBS in a 384-well tissue culture plate (black with clear bottoms). 50 nL of compound was added to cells and incubated at 37° C. for one hour. 20 μL of the recombinant human Interferon-gamma (R&D System, Cat. #285-IF, at final concentration of 10 ng/ml) or recombinant murine Interferon-gamma (PEPROTECH® Inc., Cat. #315-05, final concentration of 5 ng/ml) was added to activate IDO signaling. The cells were incubated for 18 hours in 37° C. incubator with 5% CO2.
Compound treatment was stopped by adding 5 μl trichloroacetic acid to a final concentration of 3%. Subsequently, the cell plate was further incubated at 50° C. for 30 minute. An equal volume supernatant (20 μL) and 2% (w/v) Ehrlich reagent (4-dimethylaminobenzaldehyde) in glacial acetic acid were mixed in a new clear bottom 384-well plate. This plate was incubated at room temperature for 30 minutes. Absorbance at 490 nm was measured on Envision plate reader.
Compound IC50 values were calculated using counts from unstimulated (no INF-gamma treatment) wells as 100% inhibition. INF-gamma treatment without compound treatment as 0% inhibition.

Sequence of human IDO1 (P14902 whole entry): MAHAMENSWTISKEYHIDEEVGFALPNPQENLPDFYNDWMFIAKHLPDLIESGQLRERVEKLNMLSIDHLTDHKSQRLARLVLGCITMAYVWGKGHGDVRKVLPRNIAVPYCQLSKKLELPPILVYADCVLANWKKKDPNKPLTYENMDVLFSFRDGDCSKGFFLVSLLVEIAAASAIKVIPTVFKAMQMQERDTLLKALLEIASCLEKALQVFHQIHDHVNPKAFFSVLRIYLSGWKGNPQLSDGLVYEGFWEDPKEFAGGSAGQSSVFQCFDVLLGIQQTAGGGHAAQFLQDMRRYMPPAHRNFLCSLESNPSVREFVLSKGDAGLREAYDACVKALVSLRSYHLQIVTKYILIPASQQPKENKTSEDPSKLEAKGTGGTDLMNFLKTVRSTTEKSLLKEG

| Molecule | IC50 |
| --- | --- |
| 3-(4-((1,1-dioxido- tetrahydro-2H- thiopyran-4-yl) (ethyl)amino)-3- ((4-fluorophenyl) amino)phenyl)-4- isopropoxy- butanoic acid [Example 341] | > 50 nM |
| 3-(4-((1,1-dioxidotetrahydro-2H- thiopyran-4-yl)(ethyl)amino)-3- ((4-fluorophenyl)amino)phenyl)-4- isopropoxybutanoic acid [Example 345] | > 50 nM |
| CCN(c1ccc(C(COC)CC(=O)O)cc1Nc1ccc(C#N)cc1)C1CCCOC1 (single isomer, unassigned) [264 E1] | < 50 nM |
| CCN(c1ccc(C(COC)CC(=O)O)cc1Nc1ccc(C#N)cc1)C1CCCOC1 (single isomer, unassigned) [264 E2] | < 5 nM |
| CCN(c1ccc(C(COC)CC(=O)O)cc1Nc1ccc(C#N)cc1)C1CCCOC1 (single isomer, unassigned) [265 E1] | < 5 nM |
| CCN(c1ccc(C(COC)CC(=O)O)cc1Nc1ccc(C#N)cc1)C1CCCOC1 (single isomer, unassigned) [265 E2] | < 5 nM |
| CCN(c1ccc(C(COC)CC(=O)O)cc1Nc1cnc(OC)nc1)C1CCS(=O)(=O)CC1 (single isomer, unassigned) [Example 168 Enantiomer 1, 3-(4-((1,1-Dioxidotetrahydro-2H-thiopyran-4-yl)(ethyl)amino)-3-((2-methoxypyrimidin-5-yl)amino)phenyl)-4-methoxybutanoic Acid] | > 50 nM |
| CCN(c1ccc(C(COC)CC(=O)O)cc1Nc1cnc(OC)nc1)C1CCS(=O)(=O)CC1 (single isomer, unassigned) [Example 168 Enantiomer 2, 3-(4-((1,1-Dioxidotetrahydro-2H-thiopyran-4-yl)(ethyl)amino)-3-((2-methoxypyrimidin-5-yl)amino)phenyl)-4-methoxybutanoic Acid] | > 50 nM |
| CCOc1ncc(Nc2cc(C(COC)CC(=O)O)ccc2N(CC)C2CCS(=O)(=O)CC2)cn1 (single isomer, unassigned) [Example 175, 3-(4-((1,1-dioxidotetrahydro-2H-thiopyran-4-yl)(ethyl)amino)-3-((2-ethoxypyrimidin-5-yl)amino)phenyl)-4-methoxybutanoic acid] | > 50 nM |
| CCCN(c1ccc(C(COC)CC(=O)O)cc1Nc1ccc(C#N)cc1)C1CCS(=O)(=O)CC1 (single isomer, unassigned) [Example 182 Enantiomer 1, 3-(3-((4-Cyanophenyl)amino)-4-((1,1-dioxidotetrahydro-2H-thiopyran-4-yl)(propyl)amino)phenyl)-4-methoxybutanoic Acid] | < 50 nM |
| CCCN(c1ccc(C(COC)CC(=O)O)cc1Nc1ccc(C#N)cc1)C1CCS(=O)(=O)CC1 (single isomer, unassigned) [Example 182 Enantiomer 2, 3-(3-((4-Cyanophenyl)amino)-4-((1,1-dioxidotetrahydro-2H-thiopyran-4-yl)(propyl)amino)phenyl)-4-methoxybutanoic Acid] | > 50 nM |
| CCN(c1ccc(C(CC(=O)O)C2CC2)cc1NC(=O)Nc1ccc(C#N)cc1)C1CCS(=O)(=O)CC1 (single isomer, unassigned) [Example 348 E1, 3-(3-(3-(4-Cyanophenyl)ureido)-4-((1,1-dioxidotetrahydro-2H-thiopyran-4-yl)(ethyl)amino)phenyl)-3-cyclopropylpropanoic Acid] | > 50 nM |
| CCN(c1ccc(C(CC(=O)O)C2CC2)cc1NC(=O)Nc1ccc(C#N)cc1)C1CCS(=O)(=O)CC1 (single isomer, unassigned) [Example 348 E2, 3-(3-(3-(4-Cyanophenyl)ureido)-4-((1,1-dioxidotetrahydro-2H-thiopyran-4-yl)(ethyl)amino)phenyl)-3-cyclopropylpropanoic Acid] | > 50 nM |
| CCN(c1ccc([C@H](COC)CC(=O)O)cc1Nc1ccc(C#N)cn1)C1CCOCC1 (single isomer, unassigned) [Example 389] | < 50 nM |
| CCN(c1ccc([C@H](COC)CC(=O)O)cc1Nc1ccc(C#N)c(F)c1)C1CCOCC1 (single isomer, unassigned) [Example 390] | < 5 nM |
| CCN(c1ccc([C@H](COC)CC(=O)O)cc1Nc1ccc(C#N)cc1F)C1CCOCC1 (single isomer, unassigned) [Example 392] | < 5 nM |
| CCN(c1ccc([C@H](COC)CC(=O)O)cc1Nc1ccc(Cl)cn1)C1CCOCC1 (single isomer, unassigned) [Example 393] | < 50 nM |
| CCN(c1ccc([C@H](COC)CC(=O)O)cc1Nc1ncc(Cl)cn1)C1CCOCC1 (single isomer, unassigned) [Example 394] | < 50 nM |
| CCN(c1ccc([C@H](COC)CC(=O)O)cc1Nc1ncc(F)cn1)C1CCOCC1 (single isomer, unassigned) [Example 396] | > 50 nM |
| CCN(c1ccc([C@H](COC)CC(=O)O)cc1Nc1cccc(OC(F)(F)C(F)F)c1)C1CCOCC1 (single isomer, unassigned) [Example 397] | > 50 nM |
| CCN(c1ccc([C@H](COC)CC(=O)O)cc1Nc1ccc(Cl)cc1F)C1CCOCC1 (single isomer, unassigned) [Example 399] | < 5 nM |
| CCN(c1ccc([C@H](COC)CC(=O)O)cc1Nc1ccc(F)cn1)C1CCOCC1 (single isomer, unassigned) [Example 400] | < 50 nM |

| Molecule | IC50 |
| --- | --- |
| CCN(c1ccc([C@H](COC)CC(=O)O)cc1Nc1ccc(F)cc1F)C1CCOCC1 (single isomer, unassigned) [Example 402] | < 50 nM |
| CCN(c1ccc([C@H](COC)CC(=O)O)cc1Nc1ccc(C#N)cc1C)C1CCOCC1 (single isomer, unassigned) [Example 404] | < 50 nM |
| CCN(c1ccc([C@H](COC)CC(=O)O)cc1Nc1cccc(C#N)c1)C1CCOCC1 (single isomer, unassigned) [Example 405] | > 50 nM |
| CCN(c1ccc([C@H](COC)CC(=O)O)cc1Nc1ccccc1C#N)C1CCOCC1 (single isomer, unassigned) [Example 406] | > 50 nM |
| CCOc1cc(Nc2cc([C@H](COC)CC(=O)O)ccc2N(CC)C2CCOCC2)ccc1C#N (single isomer, unassigned) [Example 407] | < 50 nM |
| CCN(c1ccc([C@H](COC)CC(=O)O)cc1Nc1ccc(C#N)c(OCC(F)F)c1)C1CCOCC1 (single isomer, unassigned) [Example 408] | < 50 nM |
| CCN(c1ccc([C@H](COC)CC(=O)O)cc1Nc1ccc(C#N)c(OCC(F)(F)F)c1)C1CCOCC1 (single isomer, unassigned) [Example 409] | < 50 nM |
| CCc1ccc(Nc2cc([C@H](COC)CC(=O)O)ccc2N(CC)C2CCOCC2)cc1 (single isomer, unassigned) [Example 411] | < 5 nM |
| CCN(c1ccc([C@H](COC)CC(=O)O)cc1Nc1ccc(F)cc1)C1CCOCC1 (single isomer, unassigned) [Example 412] | < 5 nM |
| CCN(c1ccc([C@H](COC)CC(=O)O)cc1Nc1ccc2nc(C)sc2c1)C1CCOCC1 (single isomer, unassigned) [Example 414] | < 50 nM |
| CCN(c1ccc([C@H](COC)CC(=O)O)cc1Nc1ccc2c(c1)OC(F)(F)O2)C1CCOCC1 (single isomer, unassigned) [Example 415] | < 5 nM |
| CCN(c1ccc([C@H](COC)CC(=O)O)cc1Nc1ccc(C#N)c(OC)c1)C1CCOCC1 (single isomer, unassigned) [Example 417] | < 50 nM |
| CCN(c1ccc([C@H](COC)CC(=O)O)cc1Nc1ccc(C#N)c(Cl)c1)C1CCOCC1 (single isomer, unassigned) [Example 418] | < 50 nM |
| CCN(c1ccc([C@H](COC)CC(=O)O)cc1Nc1ccc(C#N)c(C)n1)C1CCOCC1 (single isomer, unassigned) [Example 419] | > 50 nM |
| CCN(c1ccc([C@H](COC)CC(=O)O)cc1Nc1ccc(C#N)c(C(F)(F)F)c1)C1CCOCC1 (single isomer, unassigned) [Example 420] | > 50 nM |
| CCN(c1ccc([C@H](COC)CC(=O)O)cc1Nc1ccc(S(=O)(=O)CC)cc1)C1CCOCC1 (single isomer, unassigned) [Example 421] | > 50 nM |
| COCC(CC(=O)O)c1ccc(N2C[C@@H](C)O[C@@H](C)C2)c(Nc2ccc(Cl)cc2)c1 (single isomer, unassigned) [Example 604] | > 50 nM |
| COCC(CC(=O)O)c1ccc(N2C[C@@H](C)O[C@@H](C)C2)c(NC(=O)Nc2ccc(C#N)cc2)c1 (single isomer, unassigned) [Example 605 Diastereomer 2] | > 50 nM |
| COCC(CC(=O)O)c1ccc(N2C[C@@H](C)O[C@@H](C)C2)c(NC(=O)Nc2ccc(Cl)cc2F)c1 (single isomer, unassigned) [Example 607] | > 50 nM |
| CCC(CC(=O)O)c1ccc(N2CCN(C(=O)OC)CC2)c(Nc2ccc(C#N)cc2)c1 (single isomer, unassigned) [Example 668 Enantiomer 2, 3-(3-((4-Cyanophenyl)amino)-4-(4-(methoxycarbonyl)piperazin-1-yl)phenyl)pentanoic Acid] | > 50 nM |
| CCC(CC(=O)O)c1ccc(N2CCNCC2)c(Nc2ccc(C#N)cc2)c1 (single isomer, unassigned) [Example 671 Enantiomer 2, 3-(3-((4-Cyanophenyl)amino)-4-(piperazin-1-yl)phenyl) pentanoic Acid] | > 50 nM |
